Laboratory results published in PubChem BioAssay AID1259407 (Chemical Carcinogenesis Research Information System (CCRIS), 2018).
Activity calls are given as the source filed them. How the calls were made is not given here.

System: CCRIS mutagenicity, Ames/micronucleus/aberration tests
Experiment: CCRIS mutagenicity studies
[1] = Test System: AMES SALMONELLA TYPHIMURIUM, Strain/Indicator: TA98, Metabolic Activation: NONE, Method: PREINCUBATION
[2] = Test System: AMES SALMONELLA TYPHIMURIUM, Strain/Indicator: TA100, Metabolic Activation: NONE, Method: PREINCUBATION
[3] = Test System: AMES SALMONELLA TYPHIMURIUM, Strain/Indicator: TA1535, Metabolic Activation: NONE, Method: PREINCUBATION
[4] = Test System: AMES SALMONELLA TYPHIMURIUM, Strain/Indicator: TA1537, Metabolic Activation: NONE, Method: PREINCUBATION
[5] = Test System: AMES SALMONELLA TYPHIMURIUM, Strain/Indicator: TA98, Metabolic Activation: NONE, Method: STANDARD PLATE

For CC1=CC[C@H]2C(C)=CC[C@@H](C(C)C)[C@@H]2C1, the mutagenic call (End Point: IN VITRO CHROMOSOMAL ABERRATIONS, Test System: CHINESE HAMSTER OVARY CELLS, Metabolic Activation: NONE) was “inactive; negative”, the mutagenic call (End Point: IN VITRO CHROMOSOMAL ABERRATIONS, Test System: CHINESE HAMSTER OVARY CELLS, Metabolic Activation: RAT, LIVER, S-9, AROCLOR 1254) was “inactive; negative” and the mutagenic call (Test System: AMES SALMONELLA TYPHIMURIUM, Strain/Indicator: TA98, Metabolic Activation: HAMSTER, LIVER, S-9, AROCLOR 1254, Method: PREINCUBATION) was “inactive; negative”. For the same compound, the mutagenic call [1] was “inactive; negative”, the mutagenic call (Test System: AMES SALMONELLA TYPHIMURIUM, Strain/Indicator: TA98, Metabolic Activation: RAT, LIVER, S-9, AROCLOR 1254, Method: PREINCUBATION) was “inactive; negative” and the mutagenic call (Test System: AMES SALMONELLA TYPHIMURIUM, Strain/Indicator: TA100, Metabolic Activation: HAMSTER, LIVER, S-9, AROCLOR 1254, Method: PREINCUBATION) was “inactive; negative”. For the same compound, the mutagenic call [2] was “inactive; negative”, the mutagenic call (Test System: AMES SALMONELLA TYPHIMURIUM, Strain/Indicator: TA100, Metabolic Activation: RAT, LIVER, S-9, AROCLOR 1254, Method: PREINCUBATION) was “inactive; negative” and the mutagenic call (Test System: AMES SALMONELLA TYPHIMURIUM, Strain/Indicator: TA1535, Metabolic Activation: HAMSTER, LIVER, S-9, AROCLOR 1254, Method: PREINCUBATION) was “inactive; negative”. The mutagenic call [3] was “inactive; negative”, the mutagenic call (Test System: AMES SALMONELLA TYPHIMURIUM, Strain/Indicator: TA1535, Metabolic Activation: RAT, LIVER, S-9, AROCLOR 1254, Method: PREINCUBATION) was “inactive; negative” and the mutagenic call (Test System: AMES SALMONELLA TYPHIMURIUM, Strain/Indicator: TA1537, Metabolic Activation: HAMSTER, LIVER, S-9, AROCLOR 1254, Method: PREINCUBATION) was “inactive; negative”. The mutagenic call [4] was “inactive; negative” and the mutagenic call (Test System: AMES SALMONELLA TYPHIMURIUM, Strain/Indicator: TA1537, Metabolic Activation: RAT, LIVER, S-9, AROCLOR 1254, Method: PREINCUBATION) was “inactive; negative”.
Clc1cccc(-c2nc3ccccc3o2)c1 was tested, and the mutagenic call [5] was “inactive; negative”.
In the case of [Cl][Sb]([Cl])[Cl], the mutagenic call [1] is reported as “inactive; negative”, the mutagenic call (Test System: AMES SALMONELLA TYPHIMURIUM, Strain/Indicator: TA98, Metabolic Activation: RAT, LIVER, S-9 (10%), Method: PREINCUBATION) is reported as “inactive; negative” and the mutagenic call [2] is reported as “inactive; negative”. The mutagenic call (Test System: AMES SALMONELLA TYPHIMURIUM, Strain/Indicator: TA100, Metabolic Activation: RAT, LIVER, S-9 (10%), Method: PREINCUBATION) was “inactive; negative”.
O=C1C=Cc2ccccc2C1=O was tested, and the mutagenic call (Test System: AMES SALMONELLA TYPHIMURIUM, Strain/Indicator: TA97, Metabolic Activation: NONE, Method: PREINCUBATION) was “active; positive”, the mutagenic call (Test System: AMES SALMONELLA TYPHIMURIUM, Strain/Indicator: TA97, Metabolic Activation: RAT, LIVER, S-9, PHENOBARBITAL AND 5,6-BENZOFLAVONE, Method: PREINCUBATION) was “inactive; negative” and the mutagenic call (Test System: AMES SALMONELLA TYPHIMURIUM, Strain/Indicator: TA97A, Metabolic Activation: NONE, Method: PREINCUBATION) was “active; positive”. For the same compound, the mutagenic call (Test System: AMES SALMONELLA TYPHIMURIUM, Strain/Indicator: TA98, Metabolic Activation: RAT, LIVER, S-9, PHENOBARBITAL AND 5,6-BENZOFLAVONE, Method: PREINCUBATION) was “inactive; negative”, the mutagenic call [2] was “active; positive” and the mutagenic call (Test System: AMES SALMONELLA TYPHIMURIUM, Strain/Indicator: TA100, Metabolic Activation: RAT, LIVER, S-9, PHENOBARBITAL AND 5,6-BENZOFLAVONE, Method: PREINCUBATION) was “active; positive”. For the same compound, the mutagenic call (Test System: AMES SALMONELLA TYPHIMURIUM, Strain/Indicator: TA102, Metabolic Activation: RAT, LIVER, S-9, PHENOBARBITAL AND 5,6-BENZOFLAVONE, Method: PREINCUBATION) was “inactive; negative”, the mutagenic call (Test System: AMES SALMONELLA TYPHIMURIUM, Strain/Indicator: TA104, Metabolic Activation: NONE, Method: PREINCUBATION) was “active; positive” and the mutagenic call (Test System: AMES SALMONELLA TYPHIMURIUM, Strain/Indicator: TA104, Metabolic Activation: RAT, LIVER, S-9, PHENOBARBITAL AND 5,6-BENZOFLAVONE, Method: PREINCUBATION) was “active; positive”. The mutagenic call [3] was “inactive; negative”, the mutagenic call (Test System: AMES SALMONELLA TYPHIMURIUM, Strain/Indicator: TA1535, Metabolic Activation: RAT, LIVER, S-9, PHENOBARBITAL AND 5,6-BENZOFLAVONE, Method: PREINCUBATION) was “inactive; negative” and the mutagenic call [4] was “inactive; negative”. For the same compound, the mutagenic call (Test System: AMES SALMONELLA TYPHIMURIUM, Strain/Indicator: TA1537, Metabolic Activation: RAT, LIVER, S-9, PHENOBARBITAL AND 5,6-BENZOFLAVONE, Method: PREINCUBATION) was “inactive; negative”, the mutagenic call (Test System: AMES SALMONELLA TYPHIMURIUM, Strain/Indicator: TA1538, Metabolic Activation: NONE, Method: PREINCUBATION) was “inactive; negative” and the mutagenic call (Test System: AMES SALMONELLA TYPHIMURIUM, Strain/Indicator: TA1538, Metabolic Activation: RAT, LIVER, S-9, PHENOBARBITAL AND 5,6-BENZOFLAVONE, Method: PREINCUBATION) was “inactive; negative”. The mutagenic call (Test System: AMES SALMONELLA TYPHIMURIUM, Strain/Indicator: TA2637, Metabolic Activation: NONE, Method: PREINCUBATION) was “active; positive” and the mutagenic call (Test System: AMES SALMONELLA TYPHIMURIUM, Strain/Indicator: TA2637, Metabolic Activation: RAT, LIVER, S-9, PHENOBARBITAL AND 5,6-BENZOFLAVONE, Method: PREINCUBATION) was “inactive; negative”.
C1=CC2OC2C=CO1 (configuration not stated) was tested, and the mutagenic call [5] was “inactive; negative”, the mutagenic call (Test System: AMES SALMONELLA TYPHIMURIUM, Strain/Indicator: TA98, Metabolic Activation: RAT, LIVER, S-9, PHENOBARBITAL, Method: STANDARD PLATE) was “inactive; negative” and the mutagenic call (Test System: AMES SALMONELLA TYPHIMURIUM, Strain/Indicator: TA100, Metabolic Activation: NONE, Method: STANDARD PLATE) was “inactive; negative”. The mutagenic call (Test System: AMES SALMONELLA TYPHIMURIUM, Strain/Indicator: TA100, Metabolic Activation: RAT, LIVER, S-9, PHENOBARBITAL, Method: STANDARD PLATE) was “inactive; negative” and the mutagenic call (Test System: AMES SALMONELLA TYPHIMURIUM, Strain/Indicator: TM677/8-AZAGUANINE, Metabolic Activation: NONE, Method: STANDARD PLATE) was “inactive; negative”.
With ClC(Cl)(Cl)c1nc(-c2ccc3c(c2)OCO3)nc(C(Cl)(Cl)Cl)n1 the mutagenic call (End Point: In vitro chromosomal aberrations, Test System: Chinese hamster lung (CHL/IU) cells, Metabolic Activation: Rat, Liver, S-9, Phenobarbital and 5,6-benzoflavone) was “active; positive (structural changes and ploidy). ploidy response weak and not dose rela”, the mutagenic call (Test System: Ames Salmonella typhimurium, Strain/Indicator: TA98, Metabolic Activation: None, Method: Preincubation) was “inactive; negative” and the mutagenic call (Test System: Ames Salmonella typhimurium, Strain/Indicator: TA98, Metabolic Activation: Rat, Liver, S-9, Phenobarbital and 5,6-benzoflavone, Method: Preincubation) was “inactive; negative”. The mutagenic call (Test System: Ames Salmonella typhimurium, Strain/Indicator: TA100, Metabolic Activation: None, Method: Preincubation) was “active; positive”, the mutagenic call (Test System: Ames Salmonella typhimurium, Strain/Indicator: TA100, Metabolic Activation: Rat, Liver, S-9, Phenobarbital and 5,6-benzoflavone, Method: Preincubation) was “active; positive” and the mutagenic call (Test System: Ames Salmonella typhimurium, Strain/Indicator: TA1535, Metabolic Activation: None, Method: Preincubation) was “inactive; negative”. The mutagenic call (Test System: Ames Salmonella typhimurium, Strain/Indicator: TA1535, Metabolic Activation: Rat, Liver, S-9, Phenobarbital and 5,6-benzoflavone, Method: Preincubation) was “active; positive”, the mutagenic call (Test System: Ames Salmonella typhimurium, Strain/Indicator: TA1537, Metabolic Activation: None, Method: Preincubation) was “inactive; negative” and the mutagenic call (Test System: Ames Salmonella typhimurium, Strain/Indicator: TA1537, Metabolic Activation: Rat, Liver, S-9, Phenobarbital and 5,6-benzoflavone, Method: Preincubation) was “inactive; negative”. For the same compound, the mutagenic call (Test System: E. coli, Strain/Indicator: WP2uvrA/pKM101, Metabolic Activation: None, Method: Preincubation) was “inactive; negative” and the mutagenic call (Test System: E. coli, Strain/Indicator: WP2uvrA/pKM101, Metabolic Activation: Rat, Liver, S-9, Phenobarbital and 5,6-benzoflavone, Method: Preincubation) was “inactive; negative”.
